In patent publication US4839355A, “Tricyclic-pyridinylquinoline compounds, their preparation and use” (Sterling Drug Inc., priority 1988, dated 1989):
Values after ≈ are worked out from the molar mass of the structure shown. Read-outs that look alike come from different tables or passages of the source.

Tests used:
Staphylococcus aureus = assay: In vitro antimicrobial activity, microplate dilution MIC, Staphylococcus aureus; assay type: cell-based; conditions: for MIC: Staphylococcus aureus, in vitro; for in vitro activity relative to compound P / in vitro activity relative to compound Q: from Table I MICs
Procedure: (§1) The in vitro antimicrobial activity of the compounds of the invention was determined by a microplate dilution procedure. Bacterial cultures were grown in Meuller Hintom II (cation supplemented) broth (S. aureus, S. faecalis, M. luteus, E. coli and P. aeruginosa), Brain Heart Infusion (BHI) broth supplemented with 10% heat inactivated horse serum (S. penumoniae) or BHI broth supplemented with 5 mcg/ml Hemin and 0.5 mcg/ml vitamin K (B. fragilis) at 37° C. for 18-24 hrs. The cultures were grown under aerobic conditions with the exception of B. fragilis which was grown 48 hrs. under anaerobic conditions (atmosphere 5% CO2, 10% H2 and 85% N2). Resulting suspensions were diluted 1/10 in the appropriate broth or used undiluted for the inoculum. Aqueous solutions of the compounds of the invention were solubilized in dimethylsulfoxide (DMSO) at the desired concentration and 200 mcl were dispensed into the first row of wells of a sterile microplate. The compounds were then serially diluted two-fold in DMSO to give a working stock concentration range plate. The last row of wells was left compound-free receiving only DMSO to serve as a growth control. Five mcl from each well of the working stock plate was transferred to corresponding wells of a separate plate containing 95 mcl/well of the appropriate broth. All dilutions were made with either an automated dilutor or manually. The wells of microplate containing the desired compound concentrations and compound-free growth controls in broth were then inoculated using the MIC 2000 inoculator which delivers 1.5 mcl/well to give a final inoculum level of 10^4 microorganism/well or 10^5 microorganism/ml. Plates were incubated as described above and read for visible growth. The minimal inhibitory concentration (MIC: expressed in mcg/ml) of each compound tested against each test microorganism was determined as the lowest concentration of compound which prevents visible microbial growth.

Micrococcus luteus = assay: In vitro antimicrobial activity, microplate dilution MIC, Micrococcus luteus; assay type: cell-based
Procedure: as §1

Bacteroides fragilis = assay: In vitro antimicrobial activity, microplate dilution MIC, Bacteroides fragilis; assay type: cell-based
Procedure: as §1

E. coli = assay: In vivo antibacterial activity in female mice, E. coli infection; design: species or system Escherichia coli; conditions: mouse; for ED50: Escherichia coli, 168 h, one-half hour postinfection, deaths over seven days; for in vivo activity against E. coli compared with compounds P and Q: Table II
Procedure: (§2) The in vivo antibacterial activity of the compounds of the invention was determined in female mice, 18-20 grams each. Aqueous solutions of the compounds to be tested were prepared by dissolving the free acid form in dilute sodium hydroxide and diluting the solution with distilled water to the desired concentration.
(§3) Cultures of E. coli were grown in brain heart infusion broth, and the mice were inoculated intraperitoneally with 0.5 ml of the bacterial test inoculum suspended in saline. Cultures of Staph. aureus were thawed from frozen pooled stocks and mixed with 5% mucin. A 0.5 ml preparation was used to infect mice by i.p. inoculation.
(§4) The mice were medicated subcutaneously (sc) or orally (po) with 0.5 ml of the test compound solution one-half hour postinfection. Deaths were recorded daily for seven days. Fifty percent protective dose values (PD50) were calculated using probit analyis.

Pseudomonas aeruginosa = assay: In vitro antimicrobial activity, microplate dilution MIC, Pseudomonas aeruginosa; assay type: cell-based; conditions: 10^5 microorganism/ml, read-out: MIC (minimal inhibitory concentration), PA
Procedure: as §1

Streptococcus pneumoniae = assay: In vitro antimicrobial activity, microplate dilution MIC, Streptococcus pneumoniae; assay type: cell-based
Procedure: as §1

Streptococcus faecalis = assay: In vitro antimicrobial activity, microplate dilution MIC, Streptococcus faecalis; assay type: cell-based; conditions: Enterococcus faecalis
Procedure: as §1

Escherichia coli = assay: In vitro antimicrobial activity, microplate dilution MIC, Escherichia coli; assay type: cell-based
Procedure: as §1

bacteria = assay: In vitro antimicrobial activity, overall comparison over the bacterial panel; assay type: cell-based; conditions: for improved in vitro activity against named organisms / in vitro activity compared with prior art compounds P and Q: Table I MICs; for improved in vitro activity against named organisms: Staph. aureus, Strep. faecalis, Strep. pneumoniae
Procedure: as §1

Staph. aureus = assay: In vivo antibacterial activity in female mice, Staph. aureus infection; design: species or system Staphylococcus aureus; conditions: mouse; for ED50: Staphylococcus aureus, 168 h, one-half hour postinfection, deaths over seven days
Procedure: as §2, §3, §4

[1] = Serum levels in monkeys after oral dosing; assay type: in vivo; conditions: 25 mg/kg oral
[2] = 10^5 microorganism/ml, read-out: MIC (minimal inhibitory concentration), SA
[3] = 10^5 microorganism/ml, read-out: MIC (minimal inhibitory concentration), ML
[4] = 10^5 microorganism/ml, anaerobic, read-out: MIC (minimal inhibitory concentration), BF
[5] = po, read-out: PD50 (fifty percent protective dose), E. coli, po
[6] = sc, read-out: PD50 (fifty percent protective dose), E. coli, sc
[7] = 10^5 microorganism/ml, 10% horse serum in BHI broth, read-out: MIC (minimal inhibitory concentration), SP
[8] = Streptococcus faecalis, 10^5 microorganism/ml, read-out: MIC (minimal inhibitory concentration), SF
[9] = 10^5 microorganism/ml, read-out: MIC (minimal inhibitory concentration), EC
[10] = po, read-out: PD50 (fifty percent protective dose), Staph. aureus, po
[11] = sc, read-out: PD50 (fifty percent protective dose), Staph. aureus, sc
[12] = Strep. pneumoniae, read-out: MIC

| SMILES | MIC (Staphylococcus aureus; [2]) | MIC (Micrococcus luteus; [3]) | MIC (Bacteroides fragilis; [4]) | ED50 (E. coli; [5]) | ED50 (E. coli; [6]) | in vivo activity against E. coli compared with compounds P and Q (E. coli) | MIC (Pseudomonas aeruginosa) | MIC (Streptococcus pneumoniae; [7]) | MIC (Streptococcus faecalis; [8]) | MIC (Escherichia coli; [9]) | ED50 (Staph. aureus; [10]) | ED50 (Staph. aureus; [11]) | other results |
| --- | --- | --- | --- | --- | --- | --- | --- | --- | --- | --- | --- | --- | --- |
| Cc1cc(-c2c(F)c(F)c3c(=O)c(C(=O)O)cn4c3c2OC[C@@H]4C)cc(C)n1 [A, (S)-10-(2,6-Dimethyl-4-pyridinyl)-8,9-difluoro-3-methyl-7-oxo-2,3-dihydro-7H-pyrido[1,2,3-de][1,4]benzoxazine-6-carboxylic acid] | 0.016 µg/mL (≈ 0.0414 µM) | 1 µg/mL (≈ 2.59 µM) | 1 µg/mL (≈ 2.59 µM) | 12.3 mg/kg | 4.7 mg/kg | approximately equal in activity to compound Q and slightly less active than compound P against E. coli | 8 µg/mL (≈ 20.7 µM) | 0.06 µg/mL (≈ 0.155 µM) | 0.125 µg/mL (≈ 0.324 µM) | 0.125 µg/mL (≈ 0.324 µM) | 0.13 mg/kg | 0.05 mg/kg | improved in vitro activity against named organisms (bacteria): improved activity against Staph. auerus, Strep. faecalis and Strip. pneumoniae |
| Cc1cc(-c2c(F)cc3c(=O)c(C(=O)O)cn4c3c2OC[C@@H]4C)cc(C)n1 [B, (S)-10-(2,6-Dimethyl-4-pyridinyl)-9-fluoro-3-methyl-7-oxo-2,3-dihydro-7H-pyrido[1,2,3-de][1,4]benzoxazine-6-carboxylic acid] | 0.008 µg/mL (≈ 0.0217 µM) | 0.25 µg/mL (≈ 0.679 µM) | 0.25 µg/mL (≈ 0.679 µM) | 3 mg/kg | 1.4 mg/kg | approximately equal in activity to compound Q and slightly less active than compound P against E. coli | 4 µg/mL (≈ 10.9 µM) | 0.03 µg/mL (≈ 0.0814 µM) | 0.06 µg/mL (≈ 0.163 µM) | 0.03 µg/mL (≈ 0.0814 µM) | 0.03 mg/kg | 0.02 mg/kg | in vitro activity relative to compound P (Staphylococcus aureus; Staph. aureus): thirty times as active as compound P; in vitro activity relative to compound Q (Staphylococcus aureus; Staph. aureus): four times as active as compound Q; serum levels [1]: high and prolonged serum levels; half-life ([1]; monkey, serum): 16 h; Cmax ([1]; monkey, serum, read-out: maximum concentration (serum)): 25000 ng/mL; Tmax ([1]; monkey, serum, read-out: time of maximum concentration (serum)): 3.5 h; in vitro activity compared with prior art compounds P and Q (bacteria): substantilly more active than the prior art compounds (P and Q) against all of the organisms except E. coli and P. aeruginosa |
| CC[C@H]1COc2c(-c3cc(C)nc(C)c3)c(F)cc3c(=O)c(C(=O)O)cn1c23 [Compound C, (S)-10-(2,6-Dimethyl-4-pyridinyl)-9-fluoro-3-ethyl-7-oxo-2,3-dihydro-7H-pyrido[1,2,3-de][1,4]benzoxazine-6-carboxylic acid] | < 0.004 µg/mL | 0.5 µg/mL (≈ 1.31 µM) | 0.5 µg/mL (≈ 1.31 µM) | 32.9 mg/kg | 8.8 mg/kg |  | 4 µg/mL (≈ 10.5 µM) | 0.06 µg/mL (≈ 0.157 µM) | 0.125 µg/mL (≈ 0.327 µM) | 0.016 µg/mL (≈ 0.0418 µM) | 0.41 mg/kg | 0.2 mg/kg | improved in vitro activity against named organisms (bacteria): improved activity against Staph. auerus, Strep. faecalis and Strip. pneumoniae; more active than compound P against Staph. aureus (Staph. aureus; subcutaneous): fifteen; more active than compound Q against Staph. aureus (Staph. aureus; subcutaneous): three times more active |
| Cc1cc(-c2c(F)cc3c(=O)c(C(=O)O)cn4c3c2SC[C@@H]4C)cc(C)n1 [D, (S)-10-(2,6-Dimethyl-4-pyridinyl)-9-fluoro-3-methyl-7-oxo-2,3-dihydro-7H-pyrido[1,2,3-de][1,4]benzothiazine-6-carboxylic acid] | 0.004 µg/mL (≈ 0.0104 µM) | 0.06 µg/mL (≈ 0.156 µM) | 0.06 µg/mL (≈ 0.156 µM) | 2.6 mg/kg | 1.5 mg/kg | approximately equal in activity to compound Q and slightly less active than compound P against E. coli | 2 µg/mL (≈ 5.2 µM) | 0.016 µg/mL (≈ 0.0416 µM) | 0.06 µg/mL (≈ 0.156 µM) | 0.06 µg/mL (≈ 0.156 µM) | 0.03 mg/kg | 0.03 mg/kg | in vitro activity relative to compound P (Staphylococcus aureus; Staph. aureus): sixty times as active as compound P; in vitro activity relative to compound Q (Staphylococcus aureus; Staph. aureus): eight times as active as compound Q; in vitro activity compared with prior art compounds P and Q (bacteria): substantilly more active than the prior art compounds (P and Q) against all of the organisms except E. coli and P. aeruginosa |
| Cc1cc(-c2c(F)c(SCc3ccccc3)c3c(=O)c(C(=O)O)cn4c3c2OC[C@@H]4C)cc(C)n1 [Example 4, (S)-8-(Benzylthio)-10-(2,6-dimethyl-4-pyridinyl)-9-fluoro-3-methyl-7-oxo-2,3-dihydro-7H-pyrido[1,2,3-de][1,4]-benzoxazine-6-carboxylic acid] |  |  |  |  |  |  |  |  |  |  |  |  | MIC (Staphylococcus aureus; Staph. aureus, read-out: MIC): 1 µg/mL (≈ 2.04 µM); MIC (Micrococcus luteus; M. luteus, read-out: MIC): 32 µg/mL (≈ 65.2 µM); MIC (Bacteroides fragilis; B. fragilis, read-out: MIC): 32 µg/mL (≈ 65.2 µM); MIC (Streptococcus pneumoniae; [12]): 8 µg/mL (≈ 16.3 µM); MIC (Streptococcus faecalis; Strep. faecalis, read-out: MIC): 32 µg/mL (≈ 65.2 µM); MIC (Escherichia coli; E. coli, read-out: MIC): 8 µg/mL (≈ 16.3 µM); antibacterial activity in vitro (bacteria; in words): appreciable antibacterial activity in vitro |
| CCOC(=O)c1cn2c3c(c(-c4cc(C)nc(C)c4)c(F)cc3c1=O)OC[C@H]2C [Example 6(e), Ethyl (R)-10-(2,6-dimethyl-4-pyridinyl)-9-fluoro-3-methyl-7-oxo-2,3-dihydro-7H-pyrido[1,2,3-de][1,4]benzoxazine-6-carboxylate] |  |  |  |  |  |  |  |  |  |  |  |  | MIC (Staphylococcus aureus; Staph. aureus, read-out: MIC): 0.25 µg/mL (≈ 0.631 µM); MIC (Bacteroides fragilis; B. fragilis, read-out: MIC): 16 µg/mL (≈ 40.4 µM); MIC (Streptococcus pneumoniae; [12]): 1 µg/mL (≈ 2.52 µM); MIC (Streptococcus faecalis; Strep. faecalis, read-out: MIC): 4 µg/mL (≈ 10.1 µM); MIC (Escherichia coli; E. coli, read-out: MIC): 1 µg/mL (≈ 2.52 µM); antibacterial activity in vitro (bacteria; in words): substantial antibacterial activity in vitro; in vitro activity compared with the (S)-isomer (compound B) (bacteria; in words): less active than the (S)-isomer (compound B) |
| CC1COc2c(N3CCN(C)CC3)c(F)cc3c(=O)c(C(=O)O)cn1c23 (stereo not shown) [P, 9-Fluoro-3-methyl-10-(4-methyl-1-piperazinyl)-7-oxo-2,3-dihydro-7H-pyrido[1,2,3-de][1,4]benzoxazine-6-carboxylic acid, reference compound] | 0.25 µg/mL (≈ 0.692 µM) | 2 µg/mL (≈ 5.53 µM) | 0.5 µg/mL (≈ 1.38 µM) | 1.17 mg/kg | 0.48 mg/kg |  | 0.5 µg/mL (≈ 1.38 µM) | 0.25 µg/mL (≈ 0.692 µM) | 2 µg/mL (≈ 5.53 µM) | 0.008 µg/mL (≈ 0.0221 µM) | 6.5 mg/kg | 3 mg/kg |  |
| CCn1cc(C(=O)O)c(=O)c2cc(F)c(-c3cc(C)nc(C)c3)cc21 [Q, 7-(2,6-Dimethyl-4-pyridinyl)-1-ethyl-6-fluoro-1,4-dihydro-4-oxo-3-quinolinecarboxylic acid, reference compound] | 0.03 µg/mL (≈ 0.0881 µM) | 0.5 µg/mL (≈ 1.47 µM) | 2 µg/mL (≈ 5.88 µM) | 8.24 mg/kg | 5.39 mg/kg |  | 4 µg/mL (≈ 11.8 µM) | 0.25 µg/mL (≈ 0.735 µM) | 0.25 µg/mL (≈ 0.735 µM) | 0.06 µg/mL (≈ 0.176 µM) | 1.38 mg/kg | 0.71 mg/kg |  |
